Values of other authors in US20250333447A1, “CHIMERIC SMALL MOLECULES FOR LABELING PROTEINS WITH IMMUNOGENIC MOIETIES AND METHODS OF USE THEREOF” (The Brigham and Women's Hospital, Inc., priority 2022, published 2025).
pIC50, pKi: −log10 of the molar value.

Legend:
HSP90 = settings: cell free assay
PSMA = PSMA (Homo sapiens, UniProt Q04609)
Sequence of PSMA (Q04609 whole entry, species assumed): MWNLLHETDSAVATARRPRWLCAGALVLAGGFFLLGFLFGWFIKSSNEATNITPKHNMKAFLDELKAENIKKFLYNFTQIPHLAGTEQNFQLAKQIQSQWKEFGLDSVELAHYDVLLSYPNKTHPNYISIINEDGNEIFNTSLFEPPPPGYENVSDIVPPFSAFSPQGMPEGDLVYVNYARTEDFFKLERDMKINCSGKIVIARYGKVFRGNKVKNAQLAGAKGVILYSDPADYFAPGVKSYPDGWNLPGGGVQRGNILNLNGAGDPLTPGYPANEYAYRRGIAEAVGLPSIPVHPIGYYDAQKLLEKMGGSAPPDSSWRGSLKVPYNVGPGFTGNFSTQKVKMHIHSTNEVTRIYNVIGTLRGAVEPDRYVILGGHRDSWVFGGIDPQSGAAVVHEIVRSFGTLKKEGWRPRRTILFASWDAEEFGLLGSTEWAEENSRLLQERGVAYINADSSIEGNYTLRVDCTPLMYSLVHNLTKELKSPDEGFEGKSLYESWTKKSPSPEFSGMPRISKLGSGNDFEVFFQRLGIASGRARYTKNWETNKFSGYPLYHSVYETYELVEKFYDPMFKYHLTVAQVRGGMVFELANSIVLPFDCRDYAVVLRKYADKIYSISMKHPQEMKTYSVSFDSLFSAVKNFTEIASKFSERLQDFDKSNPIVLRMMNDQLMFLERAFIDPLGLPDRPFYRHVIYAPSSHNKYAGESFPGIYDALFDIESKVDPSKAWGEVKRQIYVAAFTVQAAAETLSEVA

pKi (PSMA)	SMILES	pIC50 (HSP90)
–	CO[C@H]1/C=C\C=C(/C)C(=O)NC2=CC(=O)C(NCCN(C)C)=C(C[C@@H](C)C[C@H](OC)[C@H](O)[C@@H](C)/C=C(\C)[C@@H]1OC(N)=O)C2=O [Alvespimycin]	7.21
8.10	O=C(O)CC[C@H](NC(=O)N[C@@H](CCC(=O)O)C(=O)O)C(=O)O [DUPA]	–
